We go through 16 compounds from PubChem BioAssay (NCI).

Test systems include NCI-H226 lung; NCI-H460 lung; OVCAR-3 ovarian; SF-268 CNS; SK-OV-3 ovarian; SW-620 colon; DU-145 prostate; MCF7 breast; T-47D breast; HS 578T breast.
Common to all, as to assay: NCI anticancer screen, dose series, 48 h

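Step 1: Grow cells in 96-well plates. Step 2: Expose to compound for 48 hours at 5 concentrations. Step 3: Interpolate endpoints linearly; if unreached, use highest concentration. Definition used: TGI = concentration required for complete inhibition of growth.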 Where a SMILES comes first, the peptide text is derived from it. The star is where a group is joined. Cbz = O=C(OCc1ccccc1)*; OBn = c1ccc(CO*)cc1

`COc1cccc(/C=N/[N-]C(N)=O)c1[O-].[Ni+2].[OH3+].c1cnc2c(c1)ccc1cccnc12`: the TGI in the test on NCI-H226 lung, in the test with NCI-H460 lung, with OVCAR-3 ovarian, with SF-268 CNS, in the test with SK-OV-3 ovarian and with SW-620 colon was above 100 µM throughout.

As to `Oc1[nH]c2ccccc2c1N=Nc1nc(-c2ccc(Cl)c(Cl)c2)cs1`, the TGI in the test with DU-145 prostate, in the test with MCF7 breast, in the test with NCI-H226 lung, in the test with NCI-H460 lung, in the test with OVCAR-3 ovarian and in the test with SK-OV-3 ovarian was above 100 µM throughout. The TGI with SW-620 colon and in the test with T-47D breast was above 100 µM in each case.

In the case of `COC(=O)C(Cc1ccc(O)cc1)NC(=O)C(CC(=O)OCc1ccccc1)NC(=O)OCc1ccccc1` (centres undefined) (Cbz-Asp(OBn)-Tyr-OMe; configuration not given here), the TGI in the test with HS 578T breast amounted to 69.6 µM; with NCI-H226 lung, 43.2 µM; in the test with NCI-H460 lung, 25.9 µM; with SW-620 colon, 44.8 µM; in the test on T-47D breast, 40 µM.

With `CN(C)CCSC(=Nc1ccccc1)N1CCCCC1`, the TGI is 24.5 µM in the test with NCI-H226 lung; 33.8 µM in the test with NCI-H460 lung; 29.8 µM with OVCAR-3 ovarian; 38.8 µM in the test on SF-268 CNS; above 100 µM with SK-OV-3 ovarian; 31.6 µM in the test on SW-620 colon.

Take `COc1ccc2c(c1)N=C1CSC(c3ccccc3Cl)N1C2` (centres undefined): the TGI in the test on HS 578T breast was above 100 µM; in the test on MCF7 breast, 53.5 µM; with NCI-H226 lung, 50.5 µM; with NCI-H460 lung it was 15.4 µM; with SF-268 CNS, 76.2 µM; in the test on SK-OV-3 ovarian it was 47.5 µM. Besides, the TGI in the test with SW-620 colon was 39.5 µM; in the test with T-47D breast, above 100 µM.

For the compound `OC1(c2cc3ccccc3s2)CCCCC1`, the TGI in the test with DU-145 prostate was above 100 µM; in the test on HS 578T breast it was 87.5 µM; with MCF7 breast, above 100 µM; in the test on NCI-H226 lung it was above 100 µM; with NCI-H460 lung it was above 100 µM; in the test on OVCAR-3 ovarian, above 100 µM. The TGI in the test on SF-268 CNS is 93.6 µM; with SK-OV-3 ovarian, above 100 µM; with SW-620 colon it was above 100 µM.

Take `Cc1ccc(C(C2C(=O)N(C)C(=O)N(C)C2=O)C(F)(F)C(=O)N(C)C)cc1` (centres undefined): the TGI with DU-145 prostate, with MCF7 breast, with NCI-H226 lung, in the test with NCI-H460 lung, in the test with OVCAR-3 ovarian and in the test on SF-268 CNS was above 100 µM each time. Moreover, the TGI in the test with SK-OV-3 ovarian, in the test on SW-620 colon and in the test with T-47D breast was above 100 µM each time.

Consider `N#Cc1c(N2CCCC2)ncn(Cc2ccccc2)c1=O`, for which the TGI with DU-145 prostate, in the test with HS 578T breast, in the test on NCI-H226 lung, in the test on NCI-H460 lung, in the test on OVCAR-3 ovarian and in the test on SF-268 CNS was above 100 µM in each case. The TGI with SK-OV-3 ovarian, with SW-620 colon and in the test with T-47D breast was above 100 µM each time.

Regarding `NCCNc1cccc2ccccc12`, the TGI with NCI-H226 lung, in the test with NCI-H460 lung, with OVCAR-3 ovarian, in the test with SF-268 CNS, in the test with SK-OV-3 ovarian and in the test with SW-620 colon was above 100 µM in each case.

`COC(=O)/C=C1\CCC(C)(C(=O)NS(=O)(=O)c2ccc(C)cc2)C1(C)C` (centres undefined): the TGI with DU-145 prostate, in the test with MCF7 breast, in the test with NCI-H226 lung, in the test with NCI-H460 lung, with OVCAR-3 ovarian and in the test on SF-268 CNS was above 100 µM throughout. The TGI in the test on SK-OV-3 ovarian, in the test on SW-620 colon and in the test on T-47D breast was above 100 µM each time.

In the case of `O=C1C(Br)=CC2(C=C1Br)CCNC1=C2C(=O)c2cccnc2C1=O`, the TGI in the test with DU-145 prostate was 23.5 µM; with HS 578T breast, 45.3 µM; in the test with MCF7 breast it was 41.3 µM; in the test with NCI-H226 lung, 36.9 µM; in the test with NCI-H460 lung it was 19.8 µM; in the test with OVCAR-3 ovarian, 17.9 µM. In addition, the TGI in the test with SF-268 CNS was 32.2 µM; with SK-OV-3 ovarian, 31.8 µM; in the test on SW-620 colon, 27.3 µM.

In the case of `CCOc1nc(-c2ccccc2)cc(-c2ccc(N3CCOCC3)cc2)c1C#N`, the TGI with DU-145 prostate, in the test on HS 578T breast, in the test with MCF7 breast, in the test with NCI-H226 lung, in the test with NCI-H460 lung and with OVCAR-3 ovarian was above 100 µM in each case. The TGI in the test on SF-268 CNS and in the test on SW-620 colon was above 100 µM each time.

As to `CC(CO)C1C[C@H](O)[C@@]2(C)CC(=O)C=C(CO)[C@@H]2C1` (some centres undefined), the TGI in the test with DU-145 prostate, in the test with MCF7 breast, with NCI-H226 lung, in the test with NCI-H460 lung, with OVCAR-3 ovarian and in the test on SF-268 CNS was above 100 µM in each case. Further, the TGI with SK-OV-3 ovarian, with SW-620 colon and in the test on T-47D breast was above 100 µM each time.

In the case of `COC(=O)c1cc(C#N)[nH]c1-c1ccc(C)s1`, the TGI in the test with DU-145 prostate, in the test on NCI-H226 lung, in the test with NCI-H460 lung, in the test with OVCAR-3 ovarian, in the test with SF-268 CNS and in the test with SK-OV-3 ovarian was above 100 µM throughout. The TGI in the test with SW-620 colon and with T-47D breast was above 100 µM throughout.

Take `Cc1cn(CC2=NCC(C)(C)N2)c(=O)[nH]c1=O`: the TGI with DU-145 prostate, in the test with HS 578T breast, in the test with MCF7 breast, in the test on NCI-H226 lung, in the test with NCI-H460 lung and in the test with SF-268 CNS was above 100 µM in each case. In addition, the TGI with SK-OV-3 ovarian, in the test with SW-620 colon and in the test with T-47D breast was above 100 µM each time.

Take `c1ccc2c(c1)CCc1cc3cc4c(nc3nc1-2)-c1ccccc1CC4`: the TGI in the test on NCI-H226 lung, in the test with NCI-H460 lung, in the test on OVCAR-3 ovarian, with SF-268 CNS, in the test with SK-OV-3 ovarian and with SW-620 colon was above 100 µM in each case.
